Test results as given in patent US20110014285A1, “N-ACETYL CYSTEINE COMPOSITIONS AND METHODS TO IMPROVE THE THERAPEUTIC EFFICACY OF ACETAMINOPHEN” (priority 2009, published 2011).

Legend:
[1] = NAC thiol/disulfide pair; Noszal et al. (2000); cited from earlier work
[2] = in vivo; cited from earlier work
dogs = conditions: cited from earlier work
fever = assay: Control of fever refractory to acetaminophen in a pediatric patient; format: in vivo, human; conditions: standard maximum daily dose of acetaminophen
Description: A pediatric patient receives a standard maximum daily dose of acetaminophen to control a fever, but the acetaminophen is ineffective. The patient receives the same standard maximum daily dose of acetaminophen in the form of an acetaminophen-N-acetylcysteine composition.

humans = conditions: cited from earlier work
felines = felines (cat family); cited from earlier work
[3] = effects counter to those reported for NAC; Samstrand et al (1999); cited from earlier work

## CC(=O)N[C@@H](CS)C(=O)O [NAC, N-acetylcysteine]
[1]
  half-cell potential: about +63 mV

## CC(=O)Nc1ccc(O)cc1 [acetaminophen, N-acetyl-para-aminophenol]
[2]
  binding to protein: only slightly
  volume of distribution: 0.9 to 1.0 L/kg
dogs
  dose at which toxicity is documented: > 40 mg/kg
fever
  control of fever: ineffective
humans
  dose at which toxicity is documented: > 140 mg/kg
felines
  dose at which toxicity and death were demonstrated: 5 to 10 mg/kg

## CC(=O)N[C@@H](CSSC[C@H](NC(C)=O)C(=O)O)C(=O)O [oxidized form of NAC]
[3]
  bioactive dose relative to NAC: 10-100 fold less than NAC
